Measurements reported in the NIST ThermoML archive (doi:10.1016/j.jct.2016.04.003).

Test: xn = mol fraction of the nth substance listed
Conditions: for surface tension liquid-gas: Drop volume; for viscosity / speed of sound / mass density: 99 kPa, Liquid; for viscosity: Capillary tube (Ostwald / Ubbelohde) method; for speed of sound: Frequency=3 MHz, Sing-around technique in a fixed-path interferometer; for mass density: Vibrating tube method

CCCC[n+]1ccccc1.F[B-](F)(F)F [1-butylpyridinium tetrafluoroborate] + O
Conditions | mass density [kg/m3] | speed of sound [m/s] | surface tension liquid-gas [mN/m] | viscosity [mPa·s]
293.15 K, x1 = 0.0115 | – | – | 57.1 | –
293.15 K, x1 = 0.0165 | 1028.6 | 1539 | – | –
293.15 K, x1 = 0.0185 | – | – | 54.3 | –
293.15 K, x1 = 0.0271 | – | – | 52.5 | –
293.15 K, x1 = 0.0372 | – | – | 51.3 | –
293.15 K, x1 = 0.0379 | 1058 | 1572.7 | – | –
293.15 K, x1 = 0.0456 | – | – | 50.7 | –
293.15 K, x1 = 0.047 | – | – | – | 1.379
293.15 K, x1 = 0.0863 | 1100.2 | 1606.7 | – | –
293.15 K, x1 = 0.0942 | – | – | 49.2 | –
293.15 K, x1 = 0.095 | – | – | – | 1.806
293.15 K, x1 = 0.101 | 1109.3 | 1612.3 | – | –
293.15 K, x1 = 0.134 | 1125.6 | 1620.9 | – | –
293.15 K, x1 = 0.1907 | – | – | 48.7 | –
293.15 K, x1 = 0.2001 | – | – | – | 3.439
293.15 K, x1 = 0.243 | 1158.2 | 1630 | – | –
293.15 K, x1 = 0.2846 | – | – | 48.3 | –
293.15 K, x1 = 0.289 | 1167 | 1629.4 | – | –
293.15 K, x1 = 0.2912 | – | – | – | 5.459
293.15 K, x1 = 0.34 | – | – | 48.3 | –
293.15 K, x1 = 0.3456 | 1175.6 | 1627.7 | – | –
293.15 K, x1 = 0.3866 | – | – | 48 | –
293.15 K, x1 = 0.4015 | – | – | – | 10.4
293.15 K, x1 = 0.4217 | 1184.5 | 1624.5 | – | –
293.15 K, x1 = 0.4807 | – | – | – | 15.2
293.15 K, x1 = 0.486 | – | – | 47.7 | –
293.15 K, x1 = 0.5485 | 1195.4 | 1619.7 | – | –
293.15 K, x1 = 0.5777 | – | – | 47.5 | –
293.15 K, x1 = 0.5815 | – | – | – | 23.72
293.15 K, x1 = 0.6029 | 1199 | 1618 | – | –
293.15 K, x1 = 0.6641 | – | – | – | 34.53
293.15 K, x1 = 0.6943 | – | – | 47.3 | –
293.15 K, x1 = 0.7232 | 1205.7 | 1614.9 | – | –
293.15 K, x1 = 0.7779 | – | – | 47 | –
293.15 K, x1 = 0.7855 | – | – | – | 67.74
293.15 K, x1 = 0.8005 | 1209.3 | 1613.5 | – | –
293.15 K, x1 = 0.835 | – | – | 46.8 | –
293.15 K, x1 = 0.8575 | 1211.7 | 1612.8 | – | –
293.15 K, x1 = 0.8875 | – | – | – | 121.1
293.15 K, x1 = 0.925 | – | – | 46.8 | –
293.15 K, x1 = 0.9305 | – | – | – | 149.6
293.15 K, x1 = 0.9315 | 1214.5 | 1612 | – | –
293.15 K, x1 = 0.9705 | – | – | – | 189.6
293.15 K, x1 = 1 | 1217.1 | 1611.5 | 46.9 | 220.5
303.15 K, x1 = 0.0115 | – | – | 56.4 | –
303.15 K, x1 = 0.0165 | 1025.3 | 1552 | – | –
303.15 K, x1 = 0.0185 | – | – | 54 | –
303.15 K, x1 = 0.0271 | – | – | 52.1 | –
303.15 K, x1 = 0.0372 | – | – | 51 | –
303.15 K, x1 = 0.0379 | 1053.9 | 1576.9 | – | –
303.15 K, x1 = 0.0456 | – | – | 50.4 | –
303.15 K, x1 = 0.047 | – | – | – | 1.082
303.15 K, x1 = 0.0863 | 1094.8 | 1600.1 | – | –
303.15 K, x1 = 0.0942 | – | – | 49.1 | –
303.15 K, x1 = 0.095 | – | – | – | 1.333
303.15 K, x1 = 0.101 | 1103.7 | 1603.2 | – | –
303.15 K, x1 = 0.134 | 1119.5 | 1608.1 | – | –
303.15 K, x1 = 0.1907 | – | – | 48.5 | –
303.15 K, x1 = 0.2001 | – | – | – | 2.475
303.15 K, x1 = 0.243 | 1151.3 | 1610.7 | – | –
303.15 K, x1 = 0.2846 | – | – | 48.1 | –
303.15 K, x1 = 0.289 | 1159.9 | 1608.8 | – | –
303.15 K, x1 = 0.2912 | – | – | – | 4.217
303.15 K, x1 = 0.34 | – | – | 47.9 | –
303.15 K, x1 = 0.3456 | 1168.3 | 1606.1 | – | –
303.15 K, x1 = 0.3866 | – | – | 47.6 | –
303.15 K, x1 = 0.4015 | – | – | – | 7.329
303.15 K, x1 = 0.4217 | 1177.2 | 1602.7 | – | –
303.15 K, x1 = 0.4807 | – | – | – | 10.67
303.15 K, x1 = 0.486 | – | – | 47.3 | –
303.15 K, x1 = 0.5485 | 1188 | 1597.4 | – | –
303.15 K, x1 = 0.5777 | – | – | 47 | –
303.15 K, x1 = 0.5815 | – | – | – | 15.59
303.15 K, x1 = 0.6029 | 1191.7 | 1595.6 | – | –
303.15 K, x1 = 0.6641 | – | – | – | 22.31
303.15 K, x1 = 0.6943 | – | – | 46.7 | –
303.15 K, x1 = 0.7232 | 1198.5 | 1592.3 | – | –
303.15 K, x1 = 0.7779 | – | – | 46.5 | –
303.15 K, x1 = 0.7855 | – | – | – | 41.77
303.15 K, x1 = 0.8005 | 1202.2 | 1590.7 | – | –
303.15 K, x1 = 0.835 | – | – | 46.2 | –
303.15 K, x1 = 0.8575 | 1204.6 | 1589.7 | – | –
303.15 K, x1 = 0.8875 | – | – | – | 72.76
303.15 K, x1 = 0.925 | – | – | 46.2 | –
303.15 K, x1 = 0.9305 | – | – | – | 90.38
303.15 K, x1 = 0.9315 | 1207.6 | 1588.9 | – | –
303.15 K, x1 = 0.9705 | – | – | – | 106.5
303.15 K, x1 = 1 | 1210.3 | 1588.1 | 46.3 | 119.5
